Data: EP4463162B1, “CONNEXIN 43 FOR USE IN TREATING BRCA1/2-MUTATED CANCER” (Fundación Profesor Novoa Santos, priority 2022, dated 2023)

Key:
Assay type in all cases: cell-based, human
HCC1937 cells [1] = experiment: Proliferation assay (Cell Counting Kit-8); settings: Cx43_HCC1937 compared to EV_HCC1937; 100 and 200 µM olaparib, over 96 h, all concentrations and time points
Protocol: Proliferation of tumour cell lines was evaluated using the Cell Counting Kit-8 (Dojindo Molecular Technologies). This kit comprises WST-8, a highly water-soluble tetrazolium salt, which upon reduction by cellular dehydrogenases of viable cells, gives rise to a yellow formazan dye that is solube in cell culture media and can be quantitated. Briefly, similar number of cells (1 000-5 000) were plated in 96-well plates (Corning) and left to grow for the desired time period under different treatment conditions. Then, medium was renewed (100 µL volume/well) and 10 µL of CCK-8 reagent were added to each well. Plates were incubated in the dark for 3 h at 37 °C, and absorbance was measured at 450 nm in a NanoQuant Infinite 200 plate reader (Tecan).
Cell viability was either relativized to untreated controls for each cell line at each time point, in order to account for the already reduced proliferation of Cx43-restituted cells (top graph) or reported as raw absorbance value (bottom graph).
To further characterize its involvement in BRCA1/2 mutated cancer, Cx43 was restituted by plasmid transfection in BRCA1 mutated TNBC and ovarian carcinoma cell lines, HCC1937 and SNU251, respectively. […]

HCC1937 cells [2] = experiment: Intracellular reactive oxygen species (ROS) measurement (DCFDA); settings: 96 h
Protocol: Then, ROS production was determined using the DCFDA/H2DCFDA - Cellular ROS Assay Kit (Abcam) following manufacturer's instructions. […] Afterwards, all cell conditions were washed with 100 µL/well of 1X Buffer and then stained with 100 µL/well of 25 µM 2',7' -dichlorofluorescin diacetate (DCFDA) working solution for 45 min at 37 °C in the dark. DCFDA is a fluorogenic dye, deacetylated by cellular esterases to a non-fluorescent compound, eventually oxidized by ROS into the highly fluorescent 2', 7' -dichlorofluorescein (DCF). DCFDA solution was removed and cells were washed once with phenol red-free DMEM with 10 % FBS. They were left for 1 h at 37 °C and fluorescence was measured in a Synergy HTX plate reader (BioTek) at 485/+-20 nm (excitation) and 528/+-20 nm (emission).
After ROS measurement, CCK-8 proliferation assay was performed. Briefly, medium was removed and replenished with 100 µL/well of complete RPMI. 10 µL of CCK-8 reagent were added to each well, and cells were incubated at 37 °C in the dark for 3 h. Absorbance was measured at 450 nm in a NanoQuant Infinite 200 plate reader (Tecan).
Background fluorescence of phenol red-free DMEM with 10 % FBS was subtracted from all ROS fluorescence values, which were then normalized against their respective proliferation absorbance values. Each experimental condition was further normalized against its untreated counterpart. […]

HCC1937 cells [3] = experiment: Colony formation assay; settings: 100 µM olaparib, seven days, upon Cx43 restitution
Protocol: For assessing the clonogenic capacity of tumour cells lines, they were plated as single-cell suspensions (5 000-10 000 cells) in 6 or 12-well plates (Corning) and incubated for 6-7 days with media change every 48 h. After this time, they were washed with PBS, fixed with 4 % PFA for 15 min at room temperature and stained with 0.1 % crystal violet dye (Sigma-Aldrich) for 20 min at room temperature. They were then rinsed with PBS, air dried and photographed. The staining was dissolved with 30 % acetic acid for 10 min on a shaker. The eluent was then transferred to a 96-well plate and the absorbance, indicative of colony growth, measured at 570 nm using a NanoQuant microplate reader Infinite M200 (Tecan).
For small extracellular vesicle (sEV) isolation, sEV donor cells were grown in 175 cm^2 flasks (Thermo Fisher Scientific) until 85 % confluence. […] Donor cells final density was calculated, and supernatants derived from the same number of cells were ultracentrifuged at 100 000 x g for 90 min at 4 °C using a Hitachi Ultracentrifuge CP100NX with a P70AT rotor (Hitachi). […]
Cell viability measures were either relativized to untreated controls for each cell line, in order to account for the already reduced proliferation of Cx43-restituted cells (left graph) or reported as raw absorbance values (right graph). […]

With `O=C(c1cc(Cc2n[nH]c(=O)c3ccccc23)ccc1F)N1CCN(C(=O)C2CC2)CC1` [Olaparib, olaparib] the “cell viability (proliferation assay)” value (HCC1937 cells [1]) was “robust and significant decrease in cell viability”, the ROS production (HCC1937 cells [2]; Cx43_HCC1937, olaparib 50 and 100 µM) was “increased” and the ROS production (HCC1937 cells [2]; EV_HCC1937, olaparib 50 and 100 µM, dose-dependent) was “diminished”. The “cell viability (colony formation)” value (HCC1937 cells [3]) was “profound decrease in HCC1937 cell viability”.
